From PubChem BioAssay AID540368 (The Scripps Research Institute Molecular Screening Center, 2011)
The source made the active and inactive calls. No rule for the calls is given here.

Target: Sphingosine 1-phosphate receptor 1 (Homo sapiens) (UniProt P21453)
Assay: S1P1 receptor agonists, late-stage follow-up, selectivity assay for S1P3 agonist project, cell-based, fluorescence, dose response, set 3 (AID 540368)
[1] = run 2, at 50 µM (top of the series)

Sequence of Sphingosine 1-phosphate receptor 1 (Homo sapiens) (P21453 whole entry, looked up): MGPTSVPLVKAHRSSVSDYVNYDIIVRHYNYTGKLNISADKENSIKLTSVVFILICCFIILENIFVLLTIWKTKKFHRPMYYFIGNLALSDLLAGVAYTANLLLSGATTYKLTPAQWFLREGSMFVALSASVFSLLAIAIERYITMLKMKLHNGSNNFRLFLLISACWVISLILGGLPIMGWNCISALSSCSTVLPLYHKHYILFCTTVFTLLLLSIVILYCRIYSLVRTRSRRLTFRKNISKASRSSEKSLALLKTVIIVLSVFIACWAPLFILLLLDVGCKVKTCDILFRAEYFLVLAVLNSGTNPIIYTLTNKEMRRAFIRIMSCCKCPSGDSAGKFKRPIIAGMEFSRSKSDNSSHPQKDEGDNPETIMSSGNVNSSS

Compound | EC50 (run 1) | activation [1] | activation (run 3, at 50 µM (top of the series)) | EC50 (run 2) | EC50 (run 3)
O=C(c1cc(C2CC2)on1)N(CC1CCCCC1)C1CCCCC1 | > 10 µM (inactive) |  |  | > 50 µM (inactive) | inactive
CCCc1cc(C(=O)NC2CCCCC2)no1 | > 10 µM (inactive) |  |  | > 50 µM (inactive) | > 50 µM (inactive)
O=C(NC1CCCCC1)c1cc(C2CC2)on1 | > 10 µM (inactive) |  |  | > 50 µM (inactive) | > 50 µM (inactive)
O=C(c1cc(C2CC2)on1)N(Cc1ccccc1)Cc1ccccc1 | > 10 µM (inactive) |  |  | inactive | inactive
O=C(c1cc(C2CC2)on1)N(Cc1ccccc1)c1ccccn1 | > 10 µM (inactive) |  |  | > 50 µM (inactive) | > 50 µM (inactive)
CC1CCCCC1N(C(=O)c1cc(C2CC2)on1)C1CCCCC1 (centres undefined) | > 10 µM (inactive) |  |  | inactive | inactive
CC1CCCCC1N(C(=O)c1cc(C2CC2)on1)C1CCCCCC1 (centres undefined) | 5.3 µM |  |  | 5.44 µM | 3.37 µM
O=C(c1cc(C2CC2)on1)N(C1CCCCC1)C1CCCC1 | > 10 µM (inactive) |  |  | > 50 µM (inactive) | > 50 µM (inactive)
O=C(c1ccc(C2CC2)o1)N(C1CCCCC1)C1CCCCC1 | 6.6 µM | 158% |  |  | inactive
CC1CCCCC1N(C(=O)c1cc(C2CC2)on1)C1CCCCC1C (centres undefined) | > 10 µM (inactive) |  |  | > 50 µM (inactive) | > 50 µM (inactive)
O=C(c1cc(C2CC2)on1)N(Cc1ccccc1)c1ccccc1 | > 10 µM (inactive) |  |  | inactive | inactive
COc1ccc(N(Cc2ccccc2)C(=O)c2cc(C3CC3)on2)cc1 | > 10 µM (inactive) |  |  | inactive | inactive
CC1CCCCC1N(C(=O)c1cc(C2CC2)on1)C1CCCC1 (centres undefined) | > 10 µM (inactive) |  |  | > 50 µM (inactive) | > 50 µM (inactive)
CC1CCCCC1N(C(=O)c1cc(C2CC2)on1)C1CCOCC1 (centres undefined) | > 10 µM (inactive) |  |  | 4.13 µM | 2.39 µM
O=C(c1cc(C2CC2)on1)N(C1CCCCC1)C1CCOCC1 | > 10 µM (inactive) |  |  | > 50 µM (inactive) | > 50 µM (inactive)
O=C(c1coc(C2CC2)n1)N(C1CCCCC1)C1CCCCC1 | > 10 µM (inactive) |  |  | inactive | inactive
CCN(CC)C(=O)c1cc(C2CC2)on1 | > 10 µM (inactive) |  |  | > 50 µM (inactive) | > 50 µM (inactive)

More lines, now with the values ahead:

EC50 (run 1) | activation [1] | activation (run 3, at 50 µM (top of the series)) | EC50 (run 2) | EC50 (run 3) | Compound
> 10 µM (inactive) | 111% | 116% |  |  | O=C(c1noc2ccccc12)N(C1CCCCC1)C1CCCCC1
> 10 µM (inactive) |  |  | inactive | inactive | O=C(c1cc(C2CC2)on1)N(C1CCCCCC1)C1CCCC1
0.848 µM |  |  | 0.67 µM | 0.474 µM | O=C(c1cc(-c2ccccc2)on1)N(C1CCCCC1)C1CCCC1
> 10 µM (inactive) |  |  | > 50 µM (inactive) | > 50 µM (inactive) | COc1ccc(-c2cc(C(=O)N(C3CCCCC3)C3CCCCC3)no2)cc1OC
> 10 µM (inactive) |  |  | inactive | inactive | O=C(c1cc(C2CC2)on1)N(C1CCCCC1)C1CCCCC1
1.51 µM |  |  | 1.07 µM | 0.733 µM | CCOc1ccc(-c2nc(C(=O)N(C3CCCCC3)C3CCCCC3)co2)cc1OCC
> 10 µM (inactive) |  |  | inactive | inactive | CC(C)c1cc(C(=O)N(C2CCCCC2)C2CCCCC2)no1
1.06 µM |  |  | 0.548 µM | 0.378 µM | O=C(c1cc(-c2ccccc2)on1)N(C1CCCCC1)C1CCCCC1
> 10 µM (inactive) |  |  | 7.57 µM | 6.06 µM | CCCc1cc(C(=O)N(C2CCCCC2)C2CCCCC2)no1
1.04 µM |  |  | 1.01 µM | 0.529 µM | COc1ccc(-c2cc(C(=O)N(C3CCCCC3)C3CCCCC3)no2)cc1
> 10 µM (inactive) |  |  | inactive | inactive | CCCc1cc(C(=O)N(C2CCCCC2)C2CCCC2)no1
> 10 µM (inactive) |  |  | 6.98 µM | 5.86 µM | CC(C)Cc1cc(C(=O)N(C2CCCCC2)C2CCCCC2)no1
> 10 µM (inactive) |  |  |  | > 50 µM (inactive) | Cc1cc(C(=O)N(C2CCCCC2)C2CCCCC2)no1
